From ChEMBL document CHEMBL1201862, “PubChem BioAssay data set” (2004)
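96-well plates; 48 h exposure; 5 concentrations. Endpoints by linear interpolation between flanking doses. Not reached: highest tested concentration assigned. GI50: concentration for 50% inhibition of growth.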 Active and inactive are the calls of the source. Cut-off read from the data, not from the text of the source: active = GI50 up to about 1.1 µM and inactive = higher.

Experiments:
Assay in all cases: inhibition of tumour cell growth, NCI panel, 48 h
ACHN = tested on: ACHN
Hs-578T = tested on: Hs-578T
EKVX = tested on: EKVX
HOP-92 = tested on: HOP-92
CAKI-1 = tested on: CAKI-1
NCI/ADR-RES = tested on: NCI/ADR-RES
MOLT-4 = tested on: MOLT-4
SF-295 = tested on: SF-295
NCI-H522 = tested on: NCI-H522
PC-3 = tested on: PC-3
NCI-H460 = tested on: NCI-H460
MCF7 = tested on: MCF7
HCT-116 = tested on: HCT-116
HCT-15 = tested on: HCT-15
UACC-257 = tested on: UACC-257
MDA-MB-231 = tested on: MDA-MB-231
SF-539 = tested on: SF-539
SK-MEL-28 = tested on: SK-MEL-28
SK-MEL-2 = tested on: SK-MEL-2
SNB-75 = tested on: SNB-75

Row | Structure (SMILES) | GI50 (ACHN) | GI50 (Hs-578T) | GI50 (EKVX) | GI50 (HOP-92) | GI50 (CAKI-1) | GI50 (NCI/ADR-RES) | GI50 (MOLT-4) | GI50 (SF-295) | GI50 (NCI-H522) | GI50 (PC-3) | GI50 (NCI-H460) | GI50 (MCF7) | GI50 (HCT-116) | GI50 (HCT-15) | GI50 (UACC-257) | GI50 (MDA-MB-231) | GI50 (SF-539) | GI50 (SK-MEL-28) | GI50 (SK-MEL-2) | GI50 (SNB-75)
1 | CC(OC(C)(C)C)[C@H](NC(=O)OC(C)(C)C)C(=O)O (stereo partly specified) | > 100 µM (inactive) | > 100 µM (inactive) | > 100 µM (inactive) | > 100 µM (inactive) | > 100 µM (inactive) | > 100 µM (inactive) | > 100 µM (inactive) | > 100 µM (inactive) | > 100 µM (inactive) | > 100 µM (inactive) | > 100 µM (inactive) | > 100 µM (inactive) | > 100 µM (inactive) | > 100 µM | > 100 µM (inactive) | > 100 µM (inactive) | > 100 µM (inactive) | > 10 µM (inactive) | – | –
2 | N#CC12C(=O)N=C(N)C1(C#N)C(c1ccco1)NC1=C2CCCC1 (stereo unspecified) | > 100 µM (inactive) | > 100 µM (inactive) | > 100 µM (inactive) | > 100 µM (inactive) | > 100 µM (inactive) | > 100 µM (inactive) | > 100 µM (inactive) | > 100 µM (inactive) | > 100 µM (inactive) | > 100 µM (inactive) | > 100 µM (inactive) | 75 µM (inactive) | > 100 µM (inactive) | > 100 µM | > 100 µM (inactive) | > 100 µM (inactive) | – | > 100 µM (inactive) | > 100 µM (inactive) | –
3 | CCCCCN1CCN(c2ncccn2)CC1 | > 100 µM (inactive) | > 100 µM (inactive) | > 100 µM (inactive) | 48.6 µM (inactive) | > 100 µM (inactive) | > 100 µM (inactive) | – | > 100 µM (inactive) | > 100 µM (inactive) | > 100 µM (inactive) | – | > 100 µM (inactive) | > 100 µM (inactive) | > 100 µM | > 100 µM (inactive) | > 100 µM (inactive) | > 100 µM (inactive) | > 100 µM (inactive) | > 100 µM (inactive) | > 100 µM (inactive)
4 | CC(=O)OCC1OC(n2c3c(c(-c4ccc(C)cc4)c(C#N)c2=S)C(=O)CC(C)(C)C3)C(OC(C)=O)C(OC(C)=O)C1OC(C)=O (stereo unspecified) | 39 µM (inactive) | 47.5 µM (inactive) | – | 45.5 µM (inactive) | 52.5 µM (inactive) | 57.4 µM (inactive) | 25.1 µM (inactive) | 25.5 µM (inactive) | 30.8 µM (inactive) | 18.3 µM (inactive) | 42.2 µM (inactive) | 25.6 µM (inactive) | 34.8 µM (inactive) | – | 18.5 µM (inactive) | 23.4 µM (inactive) | 23.3 µM (inactive) | 26.2 µM (inactive) | – | 23.9 µM (inactive)
5 | O=C1C(=C(C(=O)c2ccccc2)C(=O)c2ccccc2)OC(c2ccccc2)=C1C(=O)c1ccccc1 | 4.88 µM (inactive) | 11.5 µM (inactive) | 8.28 µM (inactive) | 7.19 µM (inactive) | 0.597 µM (active) | 5.2 µM (inactive) | 1.98 µM (inactive) | 4.79 µM (inactive) | 1.22 µM (inactive) | 13.2 µM (inactive) | 3.02 µM (inactive) | 1.85 µM (inactive) | 4.44 µM (inactive) | 3.36 µM | 17.1 µM (inactive) | 6.61 µM (inactive) | 5.78 µM (inactive) | 13.9 µM (inactive) | 10.8 µM (inactive) | –
6 | O=C1Nc2c(Cl)cc(Cl)cc2C1=O | 34.2 µM (inactive) | 16.4 µM (inactive) | 14.6 µM (inactive) | 24.1 µM (inactive) | 17.9 µM (inactive) | 19.7 µM (inactive) | 18 µM (inactive) | 17.1 µM (inactive) | – | 24.3 µM (inactive) | 21 µM (inactive) | 18.5 µM (inactive) | 19.3 µM (inactive) | 20.6 µM | 18.6 µM (inactive) | 21.2 µM (inactive) | 17.2 µM (inactive) | 17.7 µM (inactive) | 13.9 µM (inactive) | 6.03 µM (inactive)
7 | CCN(CC)C(=S)Oc1cc2oc(=O)cc(C)c2cc1Cl | > 100 µM (inactive) | 57.7 µM (inactive) | > 100 µM (inactive) | 56 µM (inactive) | > 100 µM (inactive) | > 100 µM (inactive) | > 100 µM (inactive) | 66.7 µM (inactive) | 80.4 µM (inactive) | > 100 µM (inactive) | > 100 µM (inactive) | 23.9 µM (inactive) | > 100 µM (inactive) | > 100 µM | > 100 µM (inactive) | > 100 µM (inactive) | > 100 µM (inactive) | > 100 µM (inactive) | 8.51 µM (inactive) | –
8 | NC(=O)N=C(N(Cc1ccccc1)Cc1ccccc1)N(Cc1ccccc1)Cc1ccccc1 | > 24.4 µM (inactive) | 97.5 µM (inactive) | > 100 µM (inactive) | 4.3 µM (inactive) | > 100 µM (inactive) | > 100 µM (inactive) | > 100 µM (inactive) | 3.91 µM (inactive) | 6.43 µM (inactive) | 4.17 µM (inactive) | – | 7.29 µM (inactive) | 3.37 µM (inactive) | > 28.4 µM | – | 15.3 µM (inactive) | 28.1 µM (inactive) | > 100 µM (inactive) | > 100 µM (inactive) | 13.3 µM (inactive)
